The record followed here is patent US12091426B2, “Bifunctional degraders of hematopoietic progenitor kinase and therapeutic uses thereof” (Nurix Therapeutics, Inc., priority 2021, dated 2024).

For this experiment, the target named is T1, HPK1 (Homo sapiens, UniProt Q92918).
T1 construct: A HiBiT tag was introduced by CRISPR on the N terminus of HPK1 in Jurkat cells; host or cells: Jurkat cells (ATCC TIB-152), monoclonal line with CRISPR knock-in of HiBiT at the endogenous HPK1 locus
The experiment in a line: HPK1 Cellular HiBit Degradation Assay. Particulars: HiBiT HPK1 Jurkat cells, 24 hrs; for DC50: concentration at which 50% of HPK1 was remaining, read-out: DC50 Category; for Dmax: Jurkat, maximum degradation vs DMSO vehicle control, read-out: Dmax Category. It is filed as cell-based. The procedure, abridged: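 Degraders are dosed in an 11-point series (10 uM to 0.1 nM final) onto Jurkat cells carrying an N-terminal HiBiT tag on endogenous HPK1. After 24 hrs at 37° C, lysis-based HiBiT luminescence quantifies remaining HPK1 relative to vehicle, and curve fitting gives DC50 and Dmax.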
For orientation: The HiBiT peptide binds its large partner to form an active luciferase.

A value given as a limit tells only on which side of the number the result lay.

T1 sequence (Q92918 whole entry): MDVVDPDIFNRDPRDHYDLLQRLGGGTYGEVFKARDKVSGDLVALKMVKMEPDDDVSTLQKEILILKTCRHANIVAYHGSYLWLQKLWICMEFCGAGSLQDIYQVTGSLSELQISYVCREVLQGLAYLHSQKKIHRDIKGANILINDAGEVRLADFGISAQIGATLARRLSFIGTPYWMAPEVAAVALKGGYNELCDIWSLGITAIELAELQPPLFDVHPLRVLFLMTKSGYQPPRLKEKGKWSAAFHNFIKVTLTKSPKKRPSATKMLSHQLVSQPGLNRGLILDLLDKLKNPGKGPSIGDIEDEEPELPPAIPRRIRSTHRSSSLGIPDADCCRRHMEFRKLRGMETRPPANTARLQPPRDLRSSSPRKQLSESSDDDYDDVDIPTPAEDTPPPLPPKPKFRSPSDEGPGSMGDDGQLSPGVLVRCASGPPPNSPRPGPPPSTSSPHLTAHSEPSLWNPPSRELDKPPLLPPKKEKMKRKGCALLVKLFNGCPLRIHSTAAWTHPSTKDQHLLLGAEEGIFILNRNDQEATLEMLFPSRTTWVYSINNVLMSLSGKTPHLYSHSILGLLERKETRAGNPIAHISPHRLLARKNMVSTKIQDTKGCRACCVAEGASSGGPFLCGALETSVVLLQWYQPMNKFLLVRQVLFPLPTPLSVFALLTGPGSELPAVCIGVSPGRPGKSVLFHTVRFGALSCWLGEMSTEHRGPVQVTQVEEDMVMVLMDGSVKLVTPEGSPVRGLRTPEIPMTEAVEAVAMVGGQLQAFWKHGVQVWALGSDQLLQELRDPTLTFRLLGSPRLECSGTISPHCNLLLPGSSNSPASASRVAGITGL

On to `CC(C)n1cnc2cc(-c3ccc4c(c3)N([C@H]3C[C@@H](N5CCCCC5)C3)C(=O)C43CCN(C(=O)C4(F)CCN(C(=O)C5CCN(c6ccc(C7CCC(=O)NC7=O)cn6)CC5)CC4)CC3)nc(NC3CC3)c21` (mixture of isomers) [Example 277, (3RS)-3-(6-{4-[4-({6-[4-(cyclopropylamino)-3-(propan-2-yl)-3H-imidazo[4,5-c]pyridin-6-yl]-2-oxo-1-[(1S,3S)-3-(piperidin-1-yl)cyclobutyl]-1,2-dihydrospiro[indole-3,4′-piperidin]-1′-yl}carbonyl)-4-fluoropiperidine-1-carbonyl]piperidin-1-yl}pyridin-3-yl)piperidine-2,6-dione], for which the DC50 – broadly, the midpoint of the concentration-degradation curve – is under 100 nM and the Dmax – broadly, the greatest extent of degradation seen – is 70 to 85%.

For `CC(C)n1cnc2cc(-c3ccc4c(c3)N([C@H]3C[C@@H](N5CCCCC5)C3)C(=O)C43CCN(C(=O)C4(CF)CCN(C(=O)C5CCN(c6ccc(C7CCC(=O)NC7=O)cn6)CC5)CC4)CC3)nc(NC3CC3)c21` (mixture of isomers) [Example 278], the DC50 was under 100 nM and the Dmax was over 85%.

With `CC(C)n1cnc2cc(-c3ccc4c(c3)N([C@H]3C[C@@H](N5CCCCC5)C3)C(=O)C43CCN(C(=O)C45CN(C(=O)C6CCN(c7ccc(C8CCC(=O)NC8=O)cn7)CC6)CC(F)(C4)C5)CC3)nc(NC3CC3)c21` (mixture of isomers) [Example 279, (3RS)-3-(6-{4-[1-({6-[4-(cyclopropylamino)-3-(propan-2-yl)-3H-imidazo[4,5-c]pyridin-6-yl]-2-oxo-1-[(1S,3S)-3-(piperidin-1-yl)cyclobutyl]-1,2-dihydrospiro[indole-3,4′-piperidin]-1′-yl}carbonyl)-5-fluoro-3-azabicyclo[3.1.1]heptane-3-carbonyl]piperidin-1-yl}pyridin-3-yl)piperidine-2,6-dione], the DC50 is under 100 nM and the Dmax lay within 70 to 85%.

For `CC(C)n1cnc2cc(-c3ccc4c(c3)N([C@H]3C[C@@H](N5CCCCC5)C3)C(=O)C43CCN(C(=O)C4(F)CCCN(C(=O)C5CCN(c6ccc(C7CCC(=O)NC7=O)cn6)CC5)C4)CC3)nc(NC3CC3)c21` (mixture of isomers) [Example 280, (3RS)-3-(6-{4-[3-({6-[4-(cyclopropylamino)-3-(propan-2-yl)-3H-imidazo[4,5-c]pyridin-6-yl]-2-oxo-1-[(1S,3S)-3-(piperidin-1-yl)cyclobutyl]-1,2-dihydrospiro[indole-3,4′-piperidin]-1′-yl}carbonyl)-3-fluoropiperidine-1-carbonyl]piperidin-1-yl}pyridin-3-yl)piperidine-2,6-dione], the DC50 was under 100 nM and the Dmax was 70 to 85%.

As to `CC(C)n1cnc2cc(-c3ccc4c(c3)N([C@H]3C[C@@H](N5CCCCC5)C3)C(=O)C43CCN(C(=O)C45CN(C(=O)C6CCN(c7ccc(C8CCC(=O)NC8=O)cn7)CC6)CC4C5(F)F)CC3)nc(NC3CC3)c21` (mixture of isomers) [Example 281, (3RS)-3-(6-{4-[1-({6-[4-(cyclopropylamino)-3-(propan-2-yl)-3H-imidazo[4,5-c]pyridin-6-yl]-2-oxo-1-[(1S,3S)-3-(piperidin-1-yl)cyclobutyl]-1,2-dihydrospiro[indole-3,4′-piperidin]-1′-yl}carbonyl)-6,6-difluoro-3-azabicyclo[3.1.0]hexane-3-carbonyl]piperidin-1-yl}pyridin-3-yl)piperidine-2,6-dione], the 50% degradation concentration (DC50) was under 100 nM and the Dmax lay within 50 to 70%.

Take `CC(C)n1cnc2cc(-c3ccc4c(c3)N([C@H]3C[C@@H](N5CCCCC5)C3)C(=O)C43CCN(C(=O)C4C5CC4CN(C(=O)C4CCN(c6ccc(C7CCC(=O)NC7=O)cn6)CC4)C5)CC3)nc(NC3CC3)c21` (mixture of isomers) [Example 282, (3RS)-3-(6-{4-[6-({6-[4-(cyclopropylamino)-3-(propan-2-yl)-3H-imidazo[4,5-c]pyridin-6-yl]-2-oxo-1-[(1S,3S)-3-(piperidin-1-yl)cyclobutyl]-1,2-dihydrospiro[indole-3,4′-piperidin]-1′-yl}carbonyl)-3-azabicyclo[3.1.1]heptane-3-carbonyl]piperidin-1-yl}pyridin-3-yl)piperidine-2,6-dione]: the DC50 is under 100 nM and the Dmax lay in the range of 70 to 85%.

For `CC(C)n1cnc2cc(-c3ccc4c(c3)N([C@H]3C[C@@H](N5CCCCC5)C3)C(=O)C43CCN(C(=O)C4CC5CCC4N(C(=O)C4CCN(c6ccc(C7CCC(=O)NC7=O)cn6)CC4)C5)CC3)nc(NC3CC3)c21` (mixture of isomers) [Example 283, (3RS)-3-(6-{4-[6-({6-[4-(cyclopropylamino)-3-(propan-2-yl)-3H-imidazo[4,5-c]pyridin-6-yl]-2-oxo-1-[(1S,3S)-3-(piperidin-1-yl)cyclobutyl]-1,2-dihydrospiro[indole-3,4′-piperidin]-1′-yl}carbonyl)-2-azabicyclo[2.2.2]Octane-2-carbonyl]piperidin-1-yl}pyridin-3-yl)piperidine-2,6-dione], the DC50 was in the range of 100 to 500 nM and the Dmax was 50 to 70%.

Turning to `CC(C)n1cnc2cc(-c3ccc4c(c3)N([C@H]3C[C@@H](N5CCCCC5)C3)C(=O)C43CCN(C(=O)C4C5CCC4CN(C(=O)C4CCN(c6ccc(C7CCC(=O)NC7=O)cn6)CC4)C5)CC3)nc(NC3CC3)c21` (mixture of isomers) [Example 284, (3RS)-3-(6-{4-[8-({6-[4-(cyclopropylamino)-3-(propan-2-yl)-3H-imidazo[4,5-c]pyridin-6-yl]-2-oxo-1-[(1S,3S)-3-(piperidin-1-yl)cyclobutyl]-1,2-dihydrospiro[indole-3,4′-piperidin]-1′-yl}carbonyl)-3-azabicyclo[3.2.1]Octane-3-carbonyl]piperidin-1-yl}pyridin-3-yl)piperidine-2,6-dione], the DC50 is under 100 nM and the Dmax was 70 to 85%.

As for `CC(C)n1cnc2cc(-c3ccc4c(c3)N([C@H]3C[C@@H](N5CCCCC5)C3)C(=O)C43CCN(C(=O)C4CN(C(=O)C5CCN(c6ccc(C7CCC(=O)NC7=O)cn6)CC5)CCC4(F)F)CC3)nc(NC3CC3)c21` (mixture of isomers) [Example 285, (3RS)-3-(6-{4-[3-({6-[4-(cyclopropylamino)-3-(propan-2-yl)-3H-imidazo[4,5-c]pyridin-6-yl]-2-oxo-1-[(1S,3S)-3-(piperidin-1-yl)cyclobutyl]-1,2-dihydrospiro[indole-3,4′-piperidin]-1′-yl}carbonyl)-4,4-Difluoropiperidine-1-carbonyl]piperidin-1-yl}pyridin-3-yl)piperidine-2,6-dione], the DC50 is 100 to 500 nM and the Dmax lay within 50 to 70%.

Take `CC(C)n1cnc2cc(-c3ccc4c(c3)N([C@H]3C[C@@H](N5CCCCC5)C3)C(=O)C43CCN(C(=O)[C@@H]4C[C@H]5CC[C@@H](C4)N5C(=O)C4CCN(c5ccc(C6CCC(=O)NC6=O)cn5)CC4)CC3)nc(NC3CC3)c21` (mixture of isomers) [Example 286, (3SR)-3-(6-{4-[(1S,3R,5RS)-3-({6-[4-(cyclopropylamino)-3-(propan-2-yl)-3H-imidazo[4,5-c]pyridin-6-yl]-2-oxo-1-[(1S,3S)-3-(piperidin-1-yl)cyclobutyl]-1,2-dihydrospiro[indole-3,4′-piperidin]-1′-yl}carbonyl)-8-azabicyclo[3.2.1]octane-8-carbonyl]piperidin-1-yl}pyridin-3-yl)piperidine-2,6-dione]: the DC50 was under 100 nM and the maximal degradation (Dmax) lay in the range of 70 to 85%.

Consider `CC(C)n1cnc2cc(-c3ccc4c(c3)N([C@H]3C[C@@H](N5CCCCC5)C3)C(=O)C43CCN(C(=O)C4CN(C(=O)C5CCN(c6ccc(C7CCC(=O)NC7=O)cn6)CC5)CCC45CCC5)CC3)nc(NC3CC3)c21` (mixture of isomers) [Example 287, (3RS)-3-(6-{4-[5-({6-[4-(cyclopropylamino)-3-(propan-2-yl)-3H-imidazo[4,5-c]pyridin-6-yl]-2-oxo-1-[(1S,3S)-3-(piperidin-1-yl)cyclobutyl]-1,2-dihydrospiro[indole-3,4′-piperidin]-1′-yl}carbonyl)-7-azaspiro[3.5]nonane-7-carbonyl]piperidin-1-yl}pyridin-3-yl)piperidine-2,6-dione], for which the DC50 was under 100 nM and the greatest degradation seen (Dmax) was in the range of 70 to 85%.

Consider `CC(C)n1cnc2cc(-c3ccc4c(c3)N([C@H]3C[C@@H](N5CCCCC5)C3)C(=O)C43CCN(C(=O)C4C5COCC4CN(C(=O)C4CCN(c6ccc(C7CCC(=O)NC7=O)cn6)CC4)C5)CC3)nc(NC3CC3)c21` (mixture of isomers) [Example 288, (3RS)-3-(6-{4-[9-({6-[4-(cyclopropylamino)-3-(propan-2-yl)-3H-imidazo[4,5-c]pyridin-6-yl]-2-oxo-1-[(1S,3S)-3-(piperidin-1-yl)cyclobutyl]-1,2-dihydrospiro[indole-3,4′-piperidin]-1′-yl}carbonyl)-3-oxa-7-azabicyclo[3.3.1]nonane-7-carbonyl]piperidin-1-yl}pyridin-3-yl)piperidine-2,6-dione], for which the DC50 was under 100 nM and the Dmax is over 85%.

`CC(C)n1cnc2cc(-c3ccc4c(c3)N([C@H]3C[C@@H](N5CCCCC5)C3)C(=O)C43CCN(C(=O)C4CC5CCC(C4)N5C(=O)C4CCN(c5ccc(C6CCC(=O)NC6=O)cc5)CC4)CC3)nc(NC3CC3)c21` (mixture of isomers) [Example 289, (3RS)-3-(4-{4-[3-({6-[4-(cyclopropylamino)-3-(propan-2-yl)-3H-imidazo[4,5-c]pyridin-6-yl]-2-oxo-1-[(1S,3S)-3-(piperidin-1-yl)cyclobutyl]-1,2-dihydrospiro[indole-3,4′-piperidin]-1′-yl}carbonyl)-8-azabicyclo[3.2.1]Octane-8-carbonyl]piperidin-1-yl}phenyl)piperidine-2,6-dione]: the 50% degradation concentration (DC50) is under 100 nM and the maximal degradation (Dmax) lay within 70 to 85%.
